Test results from patent publication US12479843B2, “Spiro ring-containing quinazoline compounds” (WIGEN BIOMEDICINE TECHNOLOGY (SHANGHAI) CO., LTD., priority 2019, dated 2025).

tested on: H358 cells; test: Antiproliferative activity against H358 cells (Cell Titer Glow, ultra-low attachment plate); format: cell-based; conditions: Homo sapiens, NCI-H358, 72 h, 96-well ultra-low attachment plate, three days after addition of compound, Cell Titer Glow
Experimental: 2500 H358 cells were seeded in a 96-well ultra-low attachment plate (corning, 7007). After one day of growth, a serially diluted compound (a maximum concentration of 5 μM, 5-fold dilution, a total of five doses) was added. Three days after the addition of the compound, Cell Titer Glow (Promega, G9681) was added to evaluate pellet growth, and the IC50 value was calculated.

SMILES | IC50 [nM]
C=C(F)C(=O)N1CC2(CCN(c3nc(OC4CCC5(CC4)CN(C)C5)nc4c(OCC(F)(F)F)c(-c5c(C)ccc6[nH]ncc56)c(C5CC5)cc34)CC2)C1 [Compound 136] | 300 to 1000
C=CC(=O)N1CC2(CCN(c3nc(N4CCC(N5CCOCC5)CC4)nc4c(OCC(F)(F)F)c(-c5c(C)ccc6[nH]ncc56)c(C5CC5)cc34)CC2)C1 [Compound 148] | 300 to 1000
C=CC(=O)N1CC2(CCN(c3nc(N4CC(N5CC[C@@H](C#N)C5)C4)nc4c(OCC(F)(F)F)c(-c5c(C)ccc6[nH]ncc56)c(C5CC5)cc34)CC2)C1 [Compound 258] | 300 to 1000
C=CC(=O)N1CC2(CCN(c3nc(N4CC(N5CC(OCC(F)(F)F)C5)C4)nc4c(OCC(F)(F)F)c(-c5c(C)ccc6[nH]ncc56)c(C5CC5)cc34)CC2)C1 [Compound 239] | 300 to 1000
C=CC(=O)N1CC2(CCN(c3nc(N4CC5(CCN(CC6CC6)CC5)C4)nc4c(OCC(F)(F)F)c(-c5c(C)ccc6[nH]ncc56)c(C5CC5)cc34)CC2)C1 [Compound 83] | < 300
C=CC(=O)N1CC2(CCN(c3nc(OC4CCN(CCOC)CC4)nc4c(OCC(F)(F)F)c(-c5c(O)ccc6ccccc56)c(C5CC5)cc34)CC2)C1 [Compound 59] | < 300
C=CC(=O)N1CC2(CCN(c3nc(OC4CCN(CCOC)CC4)nc4c(N5CC(F)(F)C5)c(-c5c(C)ccc6[nH]ncc56)c(C5CC5)cc34)CC2)C1 [Compound 9] | < 300
C=CC(=O)N1CC2(CCN(c3nc(N4CC(N5CCCC5)C4)nc4c(OCC(F)(F)F)c(-c5c(C)c(C)cc6[nH]ncc56)c(C5CC5)cc34)CC2)C1 [Compound 218] | < 300
C=CC(=O)N1CC2(CCN(c3nc(N4CC[C@@H](N5CCC(OC)CC5)C4)nc4c(OCC(F)(F)F)c(-c5c(C)ccc6[nH]ncc56)c(C5CC5)cc34)CC2)C1 [Compound 214] | 300 to 1000
C=C(F)C(=O)N1CC2(CCN(c3nc(OC4CCN(CCOC)CC4)nc4c(OCC(F)(F)F)c(-c5c(N)cccc5F)c(C5CC5)cc34)CC2)C1 [Compound 48] | 300 to 1000
C=C(C(=O)N1CC2(CCN(c3nc(OC4CCN(CCOC)CC4)nc4c(OCC(F)(F)F)c(-c5c(C)ccc6[nH]ncc56)c(C5CC5)cc34)CC2)C1)n1cccc1 [Compound 24] | 300 to 1000
C=CC(=O)N1CC2(CCN(c3nc(N4CC(N5CC[C@@H](N(C)C)C5)C4)nc4c(OCC(F)(F)F)c(-c5c(C)ccc6[nH]ncc56)c(C5CC5)cc34)CC2)C1 [Compound 256] | < 300

Other lines, results leading:

IC50 [nM] | SMILES
< 300 | C=CC(=O)N1CC2(CCN(c3nc(N4CCC5(CCN(C)CC5)C4)nc4c(OCC(F)(F)F)c(-c5c(C)ccc6[nH]ncc56)c(C5CC5)cc34)CC2)C1 [Compound 161]
< 300 | C=CC(=O)N1CC2(CCN(c3nc(N4CC5(CCN(CCOC)CC5)C4)nc4c(OCC(F)(F)F)c(-c5c(C)ccc6[nH]ncc56)c(C5CC5)cc34)CC2)C1 [Compound 91]
< 300 | C=CC(=O)N1CC2(CCN(c3nc(N(C)CCN4CC(O)C4)nc4c(OCC(F)(F)F)c(-c5c(C)ccc6[nH]ncc56)c(C5CC5)cc34)CC2)C1 [Compound 229]
< 300 | C=CC(=O)N1CC2(CCN(c3nc(N4CC(N5CC(OC)C5)C4)nc4c(OCC(F)(F)F)c(-c5c(C)ccc6[nH]ncc56)c(C5CC5)cc34)CC2)C1 [Compound 144]
< 300 | C=CC(=O)N1CC2(CCN(c3nc(OC4C5CC4CN(CCOC)C5)nc4c(OCC(F)(F)F)c(-c5c(C)ccc6[nH]ncc56)c(C5CC5)cc34)CC2)C1 (stereo not drawn) [Compound 119]
< 300 | C=CC(=O)N1CC2(CCN(c3nc(N4CC(N5CCCC5)C4)nc4c(OCC(F)(F)F)c(-c5c(C)ccc6[nH]ncc56)c(C=C)cc34)CC2)C1 [Compound 337]
< 300 | C=CC(=O)N1CC2(CCN(c3nc(N(C)CCN4CCC4)nc4c(OCC(F)(F)F)c(-c5c(C)ccc6[nH]ncc56)c(C5CC5)cc34)CC2)C1 [Compound 226]
< 300 | C=CC(=O)N1CC2(CCN(c3nc(N4CC5(C4)[C@H](F)CCN5C)nc4c(OCC(F)(F)F)c(-c5c(C)ccc6[nH]ncc56)c(C5CC5)cc34)CC2)C1 [Compound 274]
< 300 | C=CC(=O)N1CC2(CCN(c3nc(N(C)CCN(C)C)nc4c(OCC(F)(F)F)c(-c5c(C)ccc6[nH]ncc56)c(C5CC5)cc34)CC2)C1 [Compound 225]

tested on: pERK level in H358 cells; test: pERK and ERK protein content assay in H358 cells (ELISA); format: cell-based; conditions: Homo sapiens, NCI-H358, compound 1 μM, 24 h, pERK/ERK ratio compared with DMSO group, read-out: Inhibition rate (%) of pERK level
Experimental: H358 cells were seeded in a 24-well plate. After one day of growth, a test compound (at a concentration of 1 μM) was added. After 24 h of action of the compound, the cells were lysed, and the cell lysate was transferred to a 96-well ELISA plate. The levels of pERK and ERK in the lysate were measured using an ELISA kit (abcam 176660). The ratio of pERK to ERK was calculated and compared with that of the DMSO group, and the percentage of inhibition of pERK activity by the compound was calculated.

SMILES | inhibition at 1 µM [%]
C=C(F)C(=O)N1CC2(CCN(c3nc(OC4CCC5(CC4)CN(C)C5)nc4c(OCC(F)(F)F)c(-c5c(C)ccc6[nH]ncc56)c(C5CC5)cc34)CC2)C1 [Compound 136] | 50 to 90
C=CC(=O)N1CC2(CCN(c3nc(N4CCC5(CCN(C)CC5)C4)nc4c(OCC(F)(F)F)c(-c5c(C)ccc6[nH]ncc56)c(C5CC5)cc34)CC2)C1 [Compound 161] | > 90
C=CC(=O)N1CC2(CCN(c3nc(N4CC5(CCN(CCOC)CC5)C4)nc4c(OCC(F)(F)F)c(-c5c(C)ccc6[nH]ncc56)c(C5CC5)cc34)CC2)C1 [Compound 91] | > 90
C=CC(=O)N1CC2(CCN(c3nc(N(C)CCN4CC(O)C4)nc4c(OCC(F)(F)F)c(-c5c(C)ccc6[nH]ncc56)c(C5CC5)cc34)CC2)C1 [Compound 229] | > 90
C=CC(=O)N1CC2(CCN(c3nc(N4CC(N5CC(OC)C5)C4)nc4c(OCC(F)(F)F)c(-c5c(C)ccc6[nH]ncc56)c(C5CC5)cc34)CC2)C1 [Compound 144] | > 90
C=CC(=O)N1CC2(CCN(c3nc(N4CCC(N5CCOCC5)CC4)nc4c(OCC(F)(F)F)c(-c5c(C)ccc6[nH]ncc56)c(C5CC5)cc34)CC2)C1 [Compound 148] | 50 to 90
C=CC(=O)N1CC2(CCN(c3nc(OC4C5CC4CN(CCOC)C5)nc4c(OCC(F)(F)F)c(-c5c(C)ccc6[nH]ncc56)c(C5CC5)cc34)CC2)C1 (stereo not drawn) [Compound 119] | 50 to 90
C=CC(=O)N1CC2(CCN(c3nc(N4CC(N5CC[C@@H](C#N)C5)C4)nc4c(OCC(F)(F)F)c(-c5c(C)ccc6[nH]ncc56)c(C5CC5)cc34)CC2)C1 [Compound 258] | > 90
C=CC(=O)N1CC2(CCN(c3nc(N4CC(N5CCCC5)C4)nc4c(OCC(F)(F)F)c(-c5c(C)ccc6[nH]ncc56)c(C=C)cc34)CC2)C1 [Compound 337] | > 90
C=CC(=O)N1CC2(CCN(c3nc(N(C)CCN4CCC4)nc4c(OCC(F)(F)F)c(-c5c(C)ccc6[nH]ncc56)c(C5CC5)cc34)CC2)C1 [Compound 226] | > 90
C=CC(=O)N1CC2(CCN(c3nc(N4CC(N5CC(OCC(F)(F)F)C5)C4)nc4c(OCC(F)(F)F)c(-c5c(C)ccc6[nH]ncc56)c(C5CC5)cc34)CC2)C1 [Compound 239] | 50 to 90
C=CC(=O)N1CC2(CCN(c3nc(N4CC5(C4)[C@H](F)CCN5C)nc4c(OCC(F)(F)F)c(-c5c(C)ccc6[nH]ncc56)c(C5CC5)cc34)CC2)C1 [Compound 274] | > 90
C=CC(=O)N1CC2(CCN(c3nc(N(C)CCN(C)C)nc4c(OCC(F)(F)F)c(-c5c(C)ccc6[nH]ncc56)c(C5CC5)cc34)CC2)C1 [Compound 225] | > 90
C=CC(=O)N1CC2(CCN(c3nc(N4CC5(CCN(CC6CC6)CC5)C4)nc4c(OCC(F)(F)F)c(-c5c(C)ccc6[nH]ncc56)c(C5CC5)cc34)CC2)C1 [Compound 83] | > 90
C=CC(=O)N1CC2(CCN(c3nc(OC4CCN(CCOC)CC4)nc4c(OCC(F)(F)F)c(-c5c(O)ccc6ccccc56)c(C5CC5)cc34)CC2)C1 [Compound 59] | > 90
C=CC(=O)N1CC2(CCN(c3nc(OC4CCN(CCOC)CC4)nc4c(N5CC(F)(F)C5)c(-c5c(C)ccc6[nH]ncc56)c(C5CC5)cc34)CC2)C1 [Compound 9] | > 90
C=CC(=O)N1CC2(CCN(c3nc(N4CC(N5CCCC5)C4)nc4c(OCC(F)(F)F)c(-c5c(C)c(C)cc6[nH]ncc56)c(C5CC5)cc34)CC2)C1 [Compound 218] | > 90
C=CC(=O)N1CC2(CCN(c3nc(N4CC[C@@H](N5CCC(OC)CC5)C4)nc4c(OCC(F)(F)F)c(-c5c(C)ccc6[nH]ncc56)c(C5CC5)cc34)CC2)C1 [Compound 214] | 50 to 90
C=C(F)C(=O)N1CC2(CCN(c3nc(OC4CCN(CCOC)CC4)nc4c(OCC(F)(F)F)c(-c5c(N)cccc5F)c(C5CC5)cc34)CC2)C1 [Compound 48] | > 90
C=C(C(=O)N1CC2(CCN(c3nc(OC4CCN(CCOC)CC4)nc4c(OCC(F)(F)F)c(-c5c(C)ccc6[nH]ncc56)c(C5CC5)cc34)CC2)C1)n1cccc1 [Compound 24] | 50 to 90
C=CC(=O)N1CC2(CCN(c3nc(N4CC(N5CC[C@@H](N(C)C)C5)C4)nc4c(OCC(F)(F)F)c(-c5c(C)ccc6[nH]ncc56)c(C5CC5)cc34)CC2)C1 [Compound 256] | > 90
